According to patent publication US10669283B2, “Compound and pharmacologically acceptable salt thereof” (MEIJI SEIKA PHARMA CO., LTD., priority 2016, dated 2020):

Test system: PDE4
Experiment: PDE4 inhibition, scintillation proximity assay (SPA)
Type: biochemical
Conditions: scintillation proximity assay (SPA); evaluated as classes A, B, C; read-out: PDE4 Inhibitory Activity (concentration for the inhibition rate of 50%)
How it was run: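 Scintillation proximity read-out: [2,8-3H]-cAMP hydrolysis by PDE4 ran 120 min at room temperature in Tris-HCl pH 7.4 buffer with 8.3 mM MgCl2, 1.7 mM EGTA and 3 mg/mL BSA. Bead-bound product (YSi-SPA with ZnSO4, 15 min) counted; blank lacks enzyme, control has DMSO only.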

| Structure (SMILES) | IC50 |
| --- | --- |
| CC(C)(O)C1CC(Oc2ccc(-c3nccs3)c3oc(N4CC5CC(C4)N5)nc23)C1 (stereo not drawn) [Example 267, 2-(3-((2-(3,6-Diazabicyclo[3.1.1]heptan-3-yl)-7-(thiazol-2-yl)benzo[d]oxazol-4-yl)oxy)cyclobutyl)propan-2-ol] | < 100 nM |
| O=C(NCc1ccccc1)c1cc(-c2nccs2)c2oc(N3CC4CCC(C3)N4)nc2c1 [Example 98, N-benzyl-2-(3,8-diazabicyclo[3.2.1]octan-3-yl)-7-(thiazol-2-yl)benzo[d]oxazole-5-carboxamide] | < 100 nM |
| CN(C)C(=O)c1ccc(-c2nccs2)c2oc(N3CC4CCC(C3)N4)nc12 [Example 115, 2-(3,8-Diazabicyclo[3.2.1]octan-3-yl)-N,N-dimethyl-7-(thiazol-2-yl)benzo[d]oxazole-4-carboxamide] | < 100 nM |
| OCc1ccc(-c2nccs2)c2oc(N3CC4CCC(C3)N4)nc12 [Example 132, (2-(3,8-Diazabicyclo[3.2.1]octan-3-yl)-7-(thiazol-2-yl)benzo[d]oxazol-4-yl)methanol] | < 100 nM |
| CCOC(=O)c1cc(-n2cccn2)c2oc(N3CC4CCCC(C3)N4)nc2c1 [Example 93, Ethyl 2-(3,9-diazabicyclo[3.3.1]nonan-3-yl)-7-(1H-pyrazol-1-yl)benzo[d]oxazole-5-carboxylate] | 100 to 1000 nM |
| OCCOC(c1ccc(-c2nccs2)c2oc(N3CC4CC(C3)N4)nc12)C(F)(F)F (stereo not drawn) [Example 227, 2-(1-(2-(3,6-Diazabicyclo[3.1.1]heptan-3-yl)-7-(thiazol-2-yl)benzo[d]oxazol-4-yl)-2,2,2-trifluoroethoxy)ethan-1-ol] | < 100 nM |
| CCOC(=O)c1ccc(-c2nccs2)c2oc(N3CC4CCC(C3)N4)nc12 [Example 112, Ethyl 2-(3,8-diazabicyclo[3.2.1]octan-3-yl)-7-(thiazol-2-yl) benzo[d]oxazole-4-carboxylate] | < 100 nM |
| Clc1ccc(-c2nccs2)c2oc(N3CC4CC(C3)N4)nc12 [Example 37, 2-(3,6-Diazabicyclo[3.1.1]heptan-3-yl)-4-chloro-7-(thiazol-2-yl)benzo[d]oxazole] | < 100 nM |
| CN(C)C(=O)c1cc(-c2nccs2)c2oc(N3CC4CCC(C3)N4)nc2c1 [Example 94, 2-(3,8-Diazabicyclo[3.2.1]octan-3-yl)-N,N-dimethyl-7-(thiazol-2-yl)benzo[d]oxazole-5-carboxamide] | < 100 nM |
| O=C(c1ccc(-c2nccs2)c2oc(N3CC4CCC(C3)N4)nc12)N1CCOCC1 [Example 116, (2-(3,8-Diazabicyclo[3.2.1]octan-3-yl)-7-(thiazol-2-yl)benzo[d]oxazol-4-yl)(morpholino)methanone] | < 100 nM |
| O=C(c1ccc(-c2nccs2)c2oc(N3CC4CCC(C3)N4)nc12)N1CCCCC1 [Example 117, (2-(3,8-Diazabicyclo[3.2.1]octan-3-yl)-7-(thiazol-2-yl)benzo[d]oxazol-4-yl)(piperidin-1-yl)methanone] | < 100 nM |
| CCOC(=O)c1cc(-c2nccs2)c2oc(N3CC4COCC(C3)N4)nc2c1 [Example 88, Ethyl 2-(3-oxa-7,9-diazabicyclo[3.3.1]nonan-7-yl)-7-(thiazol-2-yl)benzo[d]oxazole-5-carboxylate] | 100 to 1000 nM |
| CC(O)c1ccc(-c2nccs2)c2oc(N3CC4CCCC(C3)N4)nc12 (stereo not drawn) [Example 239, 1-(2-(3,9-Diazabicyclo[3.3.1]nonan-3-yl)-7-(thiazol-2-yl)benzo[d]oxazol-4-yl)ethan-1-ol] | < 100 nM |
| COCC(O)COc1ccc(-c2nccs2)c2oc(N3CC4CCC(C3)N4)nc12 (stereo not drawn) [Example 83, 1-((2-(3,8-Diazabicyclo[3.2.1]octan-3-yl)-7-(thiazol-2-yl)benzo[d]oxazol-4-yl)oxy)-3-methoxypropan-2-ol] | < 100 nM |
| C[S+]([O-])c1cc(-c2nccs2)c2oc(N3CC4CCC(C3)N4)nc2c1 (stereo not drawn) [Example 42, 2-(3,8-Diazabicyclo[3.2.1]octan-3-yl)-5-(methylsulfinyl)-7-(thiazol-2-yl)benzo[d]oxazole] | < 100 nM |
| CC(C)(O)C(F)(F)Oc1ccc(-c2cscn2)c2oc(N3CC4CC(C3)N4)nc12 [Example 307, 1-((2-(3,6-Diazabicyclo[3.1.1]heptan-3-yl)-7-(thiazol-4-yl)benzo[d]oxazol-4-yl)oxy)-1,1-difluoro-2-methylpropan-2-ol] | < 100 nM |
| NS(=O)(=O)c1cc(-c2nccs2)c2oc(N3CC4CC(C3)N4)nc2c1 [Example 58, 2-(3,6-Diazabicyclo[3.1.1]heptan-3-yl)-7-(thiazol-2-yl)benzo[d]oxazole-5-sulfonamide] | < 100 nM |
| O=C(O)c1ccc(-c2nccs2)c2oc(N3CC4CCC(C3)N4)nc12 [Example 238, 2-(3,8-Diazabicyclo[3.2.1]octan-3-yl)-7-(thiazol-2-yl) benzo[d]oxazole-4-carboxylic acid] | < 100 nM |
| c1csc(-c2cc(CN3CCOCC3)cc3nc(N4CC5CCC(C4)N5)oc23)n1 [Example 168, 2-(3,8-Diazabicyclo[3.2.1]octan-3-yl)-5-(morpholinomethyl)-7-(thiazol-2-yl)benzo[d]oxazole] | < 100 nM |
| CCOC(=O)c1cc(-n2cccn2)c2oc(N3CC4CCC(C3)N4)nc2c1 [Example 90, Ethyl 2-(3,8-diazabicyclo[3.2.1]octan-3-yl)-7-(1H-pyrazol-1-yl)benzo[d]oxazole-5-carboxylate] | 100 to 1000 nM |
| CCOC(=O)c1cc(-c2nccs2)c2oc(N3CC4CCCC(C3)N4)nc2c1OC(F)(F)F [Example 188, Ethyl 2-(3,9-diazabicyclo[3.3.1]nonan-3-yl)-7-(thiazol-2-yl)-4-(trifluoromethoxy)benzo[d]oxazole-5-carboxylate] | < 100 nM |
| OCCOC(c1cc(-c2nccs2)c2oc(N3CC4CCC(C3)N4)nc2c1)C(F)(F)F (stereo not drawn) [Example 149, 2-(1-(2-(3,8-Diazabicyclo[3.2.1]octan-3-yl)-7-(thiazol-2-yl)benzo[d]oxazol-5-yl)-2,2,2-trifluoroethoxy)ethan-1-ol] | < 100 nM |
| CSc1cc(-c2nccs2)c2oc(N3CC4CCC(C3)N4)nc2c1 [Example 39, 2-(3,8-Diazabicyclo[3.2.1]octan-3-yl)-5-(methylthio)-7-(thiazol-2-yl)benzo[d]oxazole] | < 100 nM |
| CC(C)(O)c1cc(-c2nccs2)c2oc(N3CC4CC(C3)N4)nc2c1OC(F)(F)F [Example 196, 2-(2-(3,6-Diazabicyclo[3.1.1]heptan-3-yl)-7-(thiazol-2-yl)-4-(trifluoromethoxy)benzo[d]oxazol-5-yl)propan-2-ol] | < 100 nM |
| CCOC(=O)c1cc(-c2nccs2)c2oc(N3CC4CCCC(C3)N4)nc2c1 [Example 89, Ethyl 2-(3,9-diazabicyclo[3.3.1]nonan-3-yl)-7-(thiazol-2-yl) benzo[d]oxazole-5-carboxylate] | < 100 nM |
| CON=C(C)c1cc(-c2nccs2)c2oc(N3CC4CCC(C3)N4)nc2c1OC(F)(F)F (mixture of isomers) [Example 218, (E)-1-(2-(3,8-diazabicyclo[3.2.1]octan-3-yl)-7-(thiazol-2-yl)-4-(trifluoromethoxy)benzo[d]oxazol-5-yl)ethan-1-one O-methyloxime and (Z)-1-(2-(3,8-diazabicyclo[3.2.1]octan-3-yl)-7-(thiazol-2-yl)-4-(trifluoromethoxy)benzo[d]oxazol-5-yl)ethan-1-one O-methyloxime] | < 100 nM |
| FC(F)(F)c1c(Cl)cc(-n2cccn2)c2oc(N3CC4CCC(C3)N4)nc12 [Example 15, 2-(3,8-Diazabicyclo[3.2.1]octan-3-yl)-5-chloro-7-(1H-pyrazol-1-yl)-4-(trifluoromethyl)benzo[d]oxazole] | < 100 nM |
| COC(C)c1ccc(-c2nccs2)c2oc(N3CC4CCC(C3)N4)nc12 (stereo not drawn) [Example 242, 2-(3,8-Diazabicyclo[3.2.1]octan-3-yl)-4-(1-methoxyethyl)-7-(thiazol-2-yl)benzo[d]oxazole] | < 100 nM |

Same assay, conditions: scintillation proximity assay; class symbols; read-out: PDE4 Inhibitory Activity

| Structure (SMILES) | IC50 |
| --- | --- |
| OCC(F)(F)Oc1c(Cl)cc(-c2nccs2)c2oc(N3CC4CC(C3)N4)nc12 [Example 401, 2-((2-(3,6-diazabicyclo [3.1.1]heptan-3-yl)-5-chloro-7-(thiazol-2-yl)benzo[d]oxazol-4-yl)oxy)-2,2-difluoroethan-1-ol] | < 100 nM |
| O=C(NCc1ccccc1)c1ccc(-c2nccs2)c2oc(N3CC4CC(C3)N4)nc12 [Example 361, N-benzyl-2-(3,6-diazabicyclo [3.1.1]heptan-3-yl)-7-(thiazol-2-yl) benzo oxazole-4-carboxamide] | < 100 nM |
| O=S1(=O)CCN(c2ccc(-c3nccs3)c3oc(N4CC5CC(C4)N5)nc23)CC1 [Example 398, 4-(2-(3,6-diazabicyclo[3.1.1]heptan-3-yl)-7-(thiazol-2-yl)benzo[d]oxazol-4-yl)thiomorpholine 1,1-dioxide] | < 100 nM |
| CC(O)c1cc(-c2nccs2)c2oc(N3CC4CCC(C3)N4O)nc2c1C(F)(F)F (stereo not drawn) [Example 384, 3-(5-(1-hydroxy-ethyl)-7-(thiazol-2-yl)-4-(trifluoro-methyl)benzo[d]oxazol-2-yl)-3,8-diazabicyclo[3.2.1] octan-8-ol] | > 1000 nM |

Test system: not listed separately
Experiment: Hepatic metabolic stability (rat liver microsome method)
Type: in vitro ADME
Conditions: rat liver microsomes 0.5 mg/mL, test substance 1 μM, NADPH 1 mM, 37° C., 30 minutes
Method: Metabolic stability in rat liver microsomes was evaluated by the following method. In 100 mM of potassium phosphate buffer solution (pH 7.4), liver microsomes (concentration at reaction: 0.5 mg/mL) and the test substance (concentration at reaction: 1 μM) were preincubated at 37° C. Five minutes later, 100 mM of potassium phosphate buffer (pH 7.4) solution of NADPH (concentration at reaction: 1 mM) was mixed thereto to start the reaction. After a predetermined time passed, acetonitrile was mixed to the reaction mixture to stop the reaction. Here, the reaction time was 0 and 30 minutes, and drug concentration measurement was performed for each time period using LC-MS. The % remaining value of the test compound was calculated from the value for 0 minutes and the value for 30 minutes, using the calculation formula below: % Remaining=(Value for 30 Minutes/Value for 0 Minutes)×100
The results of measuring the rat liver microsome metabolic Stability (% remaining for 30-minute reaction) for the test compound by the above method were evaluated in accordance with the following evaluated basis; A: a % remaining rate of 75% or more, B: 60% or more and less than 75%, C: 45% or more and less than 60%, and D: less than 45%.

| Structure (SMILES) | Residual ratio (% remaining for 30-minute reaction) |
| --- | --- |
| OCC(F)(F)Oc1c(Cl)cc(-c2nccs2)c2oc(N3CC4CC(C3)N4)nc12 [Example 401, 2-((2-(3,6-diazabicyclo [3.1.1]heptan-3-yl)-5-chloro-7-(thiazol-2-yl)benzo[d]oxazol-4-yl)oxy)-2,2-difluoroethan-1-ol] | A (a % remaining rate of 75% or more) |
